In publication PMC10184130:

Columns and labels:
Type in all cases: biochemical
human plasmin = biological target: T1, human plasmin (Homo sapiens, UniProt P00747); experiment: Human plasmin enzyme assay; details: supplementary csv
T1 construct: purchased Zedira
Description: Recombinant human plasmin (Zedira, Hesse, Germany) and the substrate were diluted in an assay buffer [50 mmol/L Tris–HCl (pH 7.5), 150 mmol/L NaCl, and 0.01% (w/v) Tween 20]. Compounds were dissolved in DMSO and then diluted in an assay buffer. After 5 μL of compound solution was added to a 384-well black plate, 5 μL of substrate solution containing 75 μmol/L Boc-Val-Leu-Lys-MCA (Peptide Institute, Osaka, Japan) was added to the plate. Then, 11.25 nmol/L human plasmin was added to the plate and incubated at room temperature for 60 min. The fluorescence at an excitation wavelength of 380 nm and an emission wavelength of 460 nm was detected using an EnVision multilabel plate reader.

human factor D = biological target: T2, human factor D (Homo sapiens, UniProt P00746); experiment: Human factor D enzyme assay; details: supplementary csv
T2 construct: Recombinant human factor D (26–253 aa) fused with both the N-terminal IgG signal peptide; IgG signal peptide (N); His tag (C); made in house; host or cells: Expi293 cells
Text: Recombinant human factor D (26–253 aa) fused with both the N-terminal IgG signal peptide and the C-terminal His tag was expressed in Expi293 cells and purified. The human factor D assay condition was the same as for human MASP2, except that the enzyme solution concentration was 20 nmol/L and the substrate solution contained a 400 μmol/L Z-Lys-SBzl peptide and 50 μmol/L BES-Thio.

human trypsin = experiment: Human trypsin enzyme assay; details: supplementary csv
Description: Recombinant human trypsin (FUJIFILM Wako, Osaka, Japan) and the substrate were diluted in an assay buffer [50 mmol/L Tris–HCl (pH 7.5), 145 mmol/L NaCl, 2 mmol/L CaCl2, and 0.01% (w/v) Tween 20]. After 20 nL of compound solution was added to a 384-well black plate, 3 μL of substrate solution containing 25 μmol/L Boc-Phe-Ser-Arg-MCA (Peptide Institute, Osaka, Japan) was added to the plate. Then, 6 mU/mL human trypsin was added to the plate and incubated at room temperature for 60 min. The fluorescence at an excitation wavelength of 360 nm and an emission wavelength of 460 nm was detected using an EnVision multilabel plate reader.

human MASP2 = biological target: T3, human MASP2 (Homo sapiens, UniProt O00187); experiment: Human MASP2 enzyme assay; details: supplementary csv
T3 construct: Recombinant human MASP2 (298–686 aa) fused with both the N-terminal IgG signal peptide; IgG signal peptide (N); His tag (C); made in house; host or cells: Expi293 cells
Description: Recombinant human MASP2 (298–686 aa) fused with both the N-terminal IgG signal peptide and the C-terminal His tag was expressed in Expi293 cells and purified. The assay was performed in a 384-well black plate in a total volume of 6 μL of the assay buffer 1. After 20 nL of compound solution was added to the plate, 3 μL of substrate solution containing a 20 μmol/L Z-Gly-Arg-SBzl peptide and 20 μmol/L BES-Thio (FUJIFILM Wako, Osaka, Japan) was added to the plate. Then, 0.6 nmol/L human MASP2 was added to the plate and incubated at room temperature for 60 min. The fluorescence at an excitation wavelength of 485 nm and an emission wavelength of 535 nm was detected using an EnVision multilabel plate reader.

human kallikrein = experiment: Human kallikrein enzyme assay; details: supplementary csv
Description: Recombinant human kallikrein (R&D Systems, MN, USA) was activated by thermolysin (R&D Systems, MN, USA) prior to use. Compounds were dissolved in DMSO and then diluted in an assay buffer [50 mmol/L Tris–HCl (pH 7.5), 150 mmol/L NaCl, 10 mmol/L CaCl2, and 0.01% (w/v) Tween 20]. After 5 μL of compound solution was added to a 384-well black plate, 5 μL of substrate solution containing 150 μmol/L Pro-Phe-Arg-AMC (Peptide Institute, Osaka, Japan) was added to the plate. Then, 0.42 nmol/L human kallikrein was added to the plate and incubated at room temperature for 60 min. The fluorescence at an excitation wavelength of 380 nm and an emission wavelength of 460 nm was detected using a SpectraMax Paradigm plate reader.

human thrombin = biological target: T4, human thrombin (Homo sapiens, UniProt P00734); experiment: Human thrombin enzyme assay; details: supplementary csv
T4 construct: purchased AnaSpec
Description: The human thrombin enzyme activity was determined by a SensoLyte 520 thrombin activity assay kit (AnaSpec, CA, USA). Purified human thrombin and the substrate were diluted in the assay buffer 1. After 20 nL of compound solution was added to a 384-well black plate, 3 μL of the 2 μmol/L 5-FAM/QXLTM 520 thrombin substrate was added to the plate. Then, 8 nmol/L human thrombin was added to the plate and incubated at room temperature for 60 min. The fluorescence at an excitation wavelength of 485 nm and an emission wavelength of 535 nm was detected using an EnVision multilabel plate reader.

[1] = system: C5b-9 MAC formation induced by human serum; experiment: C5b-9 MAC complex formation study (Wieslab classical pathway kit); details: in vitro, dose-dependent
Description: The levels of the complement activation product C5b-9 MAC were determined by a Wieslab complement system classical pathway kit (Svar Life Science, Malmo, Sweden). Briefly, diluted human serum was preincubated with the reagent diluent containing 0.3% DMSO or a range of concentrations of C1s inhibitors for 10 min at room temperature. Then, the preincubated serum was added to each well, and the plate was incubated for 30 min at 37 ° C with a lid. The plate was then washed three times, and subsequent processes were conducted by following the manufacturer’s instructions. Lastly, the absorbance was measured with a Multiskan microplate photometer (Thermo Fisher Scientific, MA, USA), and the levels of complement activation were calculated based on the standard curve generated with calibrators with serially diluted human serum. The samples with serum treatment were set as 100%, and the activities of the negative control (NC) without the addition of serum were set as 0%.

T3 sequence (O00187 298-686): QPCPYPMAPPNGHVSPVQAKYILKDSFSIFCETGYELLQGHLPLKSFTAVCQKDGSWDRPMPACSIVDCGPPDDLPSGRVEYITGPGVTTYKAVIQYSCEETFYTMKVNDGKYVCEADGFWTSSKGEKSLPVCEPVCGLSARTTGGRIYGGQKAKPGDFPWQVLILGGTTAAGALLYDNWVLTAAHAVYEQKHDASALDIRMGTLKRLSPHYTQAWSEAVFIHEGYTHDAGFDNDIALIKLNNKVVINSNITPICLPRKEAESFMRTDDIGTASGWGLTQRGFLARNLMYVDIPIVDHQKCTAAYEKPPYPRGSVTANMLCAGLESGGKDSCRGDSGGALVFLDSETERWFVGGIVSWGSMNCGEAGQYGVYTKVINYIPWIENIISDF
T1 sequence (P00747 581-810 limits assumed): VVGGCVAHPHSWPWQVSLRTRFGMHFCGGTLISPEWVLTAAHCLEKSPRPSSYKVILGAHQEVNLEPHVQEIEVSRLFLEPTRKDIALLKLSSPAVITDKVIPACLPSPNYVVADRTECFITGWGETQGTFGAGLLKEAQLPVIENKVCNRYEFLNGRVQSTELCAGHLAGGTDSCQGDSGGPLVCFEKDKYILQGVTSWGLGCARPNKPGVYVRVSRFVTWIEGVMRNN
T2 sequence (P00746 26-253): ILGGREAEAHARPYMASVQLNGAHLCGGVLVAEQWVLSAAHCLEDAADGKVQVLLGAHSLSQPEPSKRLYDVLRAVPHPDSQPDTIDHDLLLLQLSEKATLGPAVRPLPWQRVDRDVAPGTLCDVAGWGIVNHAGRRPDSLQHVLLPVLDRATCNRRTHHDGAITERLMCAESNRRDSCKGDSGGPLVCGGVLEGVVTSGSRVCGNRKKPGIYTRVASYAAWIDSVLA

SMILES: Cc1cc([C@H]2CN(c3cc(F)c4c(N)nncc4c3)CCN2c2cccc(F)c2)no1 [Compound (R)-8, 8-Fluoro-6-[(3R)-4-(3-fluorophenyl)-3-(5-methyl-1,2-oxazol-3-yl)piperazin-1-yl]phthalazin-1-amine]
- IC50 (human plasmin): > 30 µM
- IC50 (human factor D): > 30 µM
- IC50 (human trypsin): > 30 µM
- IC50 (human MASP2): > 30 µM
- IC50 (human kallikrein): > 30 µM
- IC50 (human thrombin): > 30 µM
- Inhibition of MAC formation induced by human serum [1]: significantly inhibited
